According to the NIST ThermoML archive (doi:10.1021/acs.jced.8b00387):

Assay: xn = mol fraction of the nth substance listed
Settings: for viscosity / mass density / speed of sound: 102 kPa, Liquid; for viscosity: Concentric cylinders viscometry; for mass density: Vibrating tube method; for speed of sound: Frequency=3 MHz, Single path-length method; for surface tension liquid-gas: 295 K, Pendant drop shape

CC(CC(C)(C)C)CC(C)(C)C [2,2,4,6,6-pentamethylheptane] + CCCCc1ccccc1
Settings | mass density [kg/m3] | speed of sound [m/s] | viscosity [mPa·s]
253.15 K, x2 = 0.1001 | 782.1 | – | –
253.15 K, x2 = 0.1015 | – | – | 2.82
253.15 K, x2 = 0.2 | 791.5 | – | –
253.15 K, x2 = 0.2005 | – | – | 2.63
253.15 K, x2 = 0.2999 | – | – | 2.49
253.15 K, x2 = 0.3001 | 801 | – | –
253.15 K, x2 = 0.4001 | – | – | 2.37
253.15 K, x2 = 0.4006 | 811.2 | – | –
253.15 K, x2 = 0.4996 | – | – | 2.28
253.15 K, x2 = 0.5 | 822.2 | – | –
253.15 K, x2 = 0.6 | – | – | 2.24
253.15 K, x2 = 0.6002 | 834.1 | – | –
253.15 K, x2 = 0.6999 | 846.8 | – | 2.2
253.15 K, x2 = 0.8 | – | – | 2.19
253.15 K, x2 = 0.8009 | 860 | – | –
253.15 K, x2 = 0.9 | 876.1 | – | 2.21
288.15 K, x2 = 0.1001 | 756.92 | 1234.1 | –
288.15 K, x2 = 0.2 | 765.57 | 1245.3 | –
288.15 K, x2 = 0.3001 | 774.88 | 1257.1 | –
288.15 K, x2 = 0.4006 | 784.92 | 1270 | –
288.15 K, x2 = 0.5 | 795.63 | 1283.8 | –
288.15 K, x2 = 0.6002 | 807.34 | 1298.7 | –
288.15 K, x2 = 0.6999 | 819.87 | 1315 | –
288.15 K, x2 = 0.8009 | 833.77 | 1332.9 | –
288.15 K, x2 = 0.9 | 848.29 | 1352.1 | –
293.15 K, x2 = 0.1001 | 753.25 | 1214.1 | –
293.15 K, x2 = 0.1015 | – | – | 1.24
293.15 K, x2 = 0.2 | 761.88 | 1225.4 | –
293.15 K, x2 = 0.2005 | – | – | 1.18
293.15 K, x2 = 0.2999 | – | – | 1.13
293.15 K, x2 = 0.3001 | 771.17 | 1237.2 | –
293.15 K, x2 = 0.4001 | – | – | 1.08
293.15 K, x2 = 0.4006 | 781.17 | 1250 | –
293.15 K, x2 = 0.4996 | – | – | 1.05
293.15 K, x2 = 0.5 | 791.85 | 1263.8 | –
293.15 K, x2 = 0.6 | – | – | 1.02
293.15 K, x2 = 0.6002 | 803.52 | 1278.9 | –
293.15 K, x2 = 0.6999 | 816.01 | 1295 | 1.01
293.15 K, x2 = 0.8 | – | – | 0.995
293.15 K, x2 = 0.8009 | 829.8 | 1312.9 | –
293.15 K, x2 = 0.9 | 844.33 | 1332.1 | 0.997
303.15 K, x2 = 0.1001 | 745.91 | 1175 | –
303.15 K, x2 = 0.1015 | – | – | 1.07
303.15 K, x2 = 0.2 | 754.49 | 1186.5 | –
303.15 K, x2 = 0.2005 | – | – | 1.03
303.15 K, x2 = 0.2999 | – | – | 0.989
303.15 K, x2 = 0.3001 | 763.72 | 1198 | –
303.15 K, x2 = 0.4001 | – | – | 0.951
303.15 K, x2 = 0.4006 | 773.66 | 1210.8 | –
303.15 K, x2 = 0.4996 | – | – | 0.924
303.15 K, x2 = 0.5 | 784.27 | 1224.6 | –
303.15 K, x2 = 0.6 | – | – | 0.904
303.15 K, x2 = 0.6002 | 795.86 | 1240.1 | –
303.15 K, x2 = 0.6999 | 808.28 | 1255.8 | 0.887
303.15 K, x2 = 0.8 | – | – | 0.874
303.15 K, x2 = 0.8009 | 821.96 | 1274.1 | –
303.15 K, x2 = 0.9 | 836.41 | 1292.8 | 0.874
313.15 K, x2 = 0.1001 | 738.55 | 1136.7 | –
313.15 K, x2 = 0.1015 | – | – | 0.92
313.15 K, x2 = 0.2 | 747.07 | 1148.4 | –
313.15 K, x2 = 0.2005 | – | – | 0.89
313.15 K, x2 = 0.2999 | – | – | 0.862
313.15 K, x2 = 0.3001 | 756.25 | 1159.8 | –
313.15 K, x2 = 0.4001 | – | – | 0.837
313.15 K, x2 = 0.4006 | 766.12 | 1172.6 | –
313.15 K, x2 = 0.4996 | – | – | 0.814
313.15 K, x2 = 0.5 | 776.66 | 1186.3 | –
313.15 K, x2 = 0.6 | – | – | 0.798
313.15 K, x2 = 0.6002 | 788.17 | 1201.9 | –
313.15 K, x2 = 0.6999 | 800.51 | 1217.5 | 0.781
313.15 K, x2 = 0.8 | – | – | 0.77
313.15 K, x2 = 0.8009 | 814.1 | 1235.9 | –
313.15 K, x2 = 0.9 | 828.46 | 1254.4 | 0.77
323.15 K, x2 = 0.1001 | 731.16 | 1099.4 | –
323.15 K, x2 = 0.1015 | – | – | 0.813
323.15 K, x2 = 0.2 | 739.61 | 1111 | –
323.15 K, x2 = 0.2005 | – | – | 0.784
323.15 K, x2 = 0.2999 | – | – | 0.762
323.15 K, x2 = 0.3001 | 748.74 | 1122.4 | –
323.15 K, x2 = 0.4001 | – | – | 0.735
323.15 K, x2 = 0.4006 | 758.55 | 1135.1 | –
323.15 K, x2 = 0.4996 | – | – | 0.718
323.15 K, x2 = 0.5 | 769.02 | 1148.8 | –
323.15 K, x2 = 0.6 | – | – | 0.703
323.15 K, x2 = 0.6002 | 780.45 | 1164.4 | –
323.15 K, x2 = 0.6999 | 792.72 | 1179.9 | 0.692
323.15 K, x2 = 0.8 | – | – | 0.682
323.15 K, x2 = 0.8009 | 806.2 | 1198.3 | –
323.15 K, x2 = 0.9 | 820.47 | 1216.8 | 0.683
333.15 K, x2 = 0.1001 | 723.71 | 1063 | –
333.15 K, x2 = 0.1015 | – | – | 0.715
333.15 K, x2 = 0.2 | 732.11 | 1074.5 | –
333.15 K, x2 = 0.2005 | – | – | 0.692
333.15 K, x2 = 0.2999 | – | – | 0.675
333.15 K, x2 = 0.3001 | 741.19 | 1086.1 | –
333.15 K, x2 = 0.4001 | – | – | 0.653
333.15 K, x2 = 0.4006 | 750.94 | 1098.7 | –
333.15 K, x2 = 0.4996 | – | – | 0.636
333.15 K, x2 = 0.5 | 761.34 | 1112.3 | –
333.15 K, x2 = 0.6 | – | – | 0.627
333.15 K, x2 = 0.6002 | 772.69 | 1127.7 | –
333.15 K, x2 = 0.6999 | 784.88 | 1143.2 | 0.617
333.15 K, x2 = 0.8 | – | – | 0.61
333.15 K, x2 = 0.8009 | 798.16 | 1161.4 | –
333.15 K, x2 = 0.9 | 812.44 | 1180 | 0.611

Settings | surface tension liquid-gas [mN/m]
x2 = 0.1001 | 22
x2 = 0.2 | 22.2
x2 = 0.3001 | 22.7
x2 = 0.4006 | 23.1
x2 = 0.5 | 23.5
x2 = 0.6002 | 24
x2 = 0.6999 | 24.8
x2 = 0.8009 | 25.7
x2 = 0.8985 | 26.7
